# Source: US20190194179A1, “ANTIBIOTIC COMPOUNDS” (DISCUVA LTD., priority 2016, published 2019)
# Structures can show the parent of a compound that is named as a salt.
# System: Neisseria gonorrhoeae
# Experiment: EC50 determination: plate-based broth growth assay (absorbance at 600 nm) of Neisseria gonorrhoeae
# Assay type: cell-based
# Details: absorbance 600 nm after 20 hours at 37° C./5% CO2, read-out: IC50 (Inhibitory concentration) against Neisseria gonorrhoeae
# Protocol: Actively growing Neisseria gonorrhoeae on GC agar (based on; Spence et. al. (2008): Curr. Protoc. Microbiol. 8:4A.1.1-4A.1.26) plates are harvested and transferred to GC broth (based on; Spence et al (2008): Curr. Protoc. Microbiol. 8:4A.1.1-4A.1.26) to generate a liquid stock. This culture is allowed to establish and grow to mid-log phase (at 37° C./5% CO2), finally this culture is diluted (˜10^5 cells/ml) to generate a seed inoculum to establish plate-based broth assays. EC50 values were determined by assaying growth (absorbance read at 600 nm, after 20 hours at 37° C./5% CO2) of Neisseria gonorrhoeae across a 10-point dilution series of the test compound. The EC50 value is determined from transformed data to identify the concentration of compound giving a 50% response relative to control samples (no compound).
row,IC50,Structure (SMILES)
1,≤ 1000 nM,"CN1CCN(c2cnc(Nc3nc4ccc(C(F)(F)F)cc4o3)s2)CC1 [Example 35, N-(5-(4-Methylpiperazin-1-yl)thiazol-2-yl)-6-(trifluoromethyl)benzo[d]oxazol-2-amine]"
2,≤ 1000 nM,"NC(=O)c1csc(Nc2nc3cccc(Cl)c3o2)n1 [Example 36, 2-((7-Chlorobenzo[d]oxazol-2-yl)amino)thiazole-4-carboxamide]"
3,≤ 10000 nM,"O=C(NC1CC1)c1cnc(Nc2nc3cc(C(F)(F)F)ccc3o2)s1 [Example 37, N-Cyclopropyl-2-((5-(trifluoromethyl)benzo[d]oxazol-2-yl)amino)thiazole-5-carboxamide]"
4,≤ 10000 nM,"Cn1ccc(Nc2nc3cc(C(F)(F)F)ccc3o2)n1 [Example 38, N-(1-Methyl-1H-pyrazol-3-yl)-5-(trifluoromethyl)benzo[d]oxazol-2-amine]"
5,≤ 1000 nM,"Cc1nnc(Nc2nc3cccc(Cl)c3o2)o1 [Example 39, 7-Chloro-N-(5-methyl-1,3,4-oxadiazol-2-yl)benzo[d]oxazol-2-amine]"
6,≤ 100 nM,"Cc1nnc(Nc2nc3c(Cl)cc(Cl)cc3o2)o1 [Example 40, 4,6-Dichloro-N-(5-methyl-1,3,4-oxadiazol-2-yl)benzo[d]oxazol-2-amine]"
7,≤ 1000 nM,"Cn1cnnc1Nc1nc2cc(C(F)(F)F)ccc2o1 [Example 41, N-(4-methyl-4H-1,2,4-triazol-3-yl)-5-(trifluoromethyl)benzo[d]oxazol-2-amine]"
8,≤ 100 nM,"Cc1cc(Nc2nc3cc(C(F)(F)F)c(Cl)cc3o2)no1 [Example 42, 6-Chloro-N-(5-methylisoxazol-3-yl)-5-(trifluoromethyl)benzo[d]oxazol-2-amine]"
9,≤ 100 nM,"FC(F)(F)c1cc2nc(Nc3nnc[nH]3)oc2cc1Cl [Example 43, 6-Chloro-N-(4H-1,2,4-triazol-3-yl)-5-(trifluoromethyl)benzo[d]oxazol-2-amine]"
10,≤ 100 nM,"COC(=O)c1ccc2oc(Nc3nnc(C)o3)nc2c1 [Example 44, Methyl 2-((5-methyl-1,3,4-oxadiazol-2-yl)amino)benzo[d]oxazole-5-carboxylate]"
11,≤ 100 nM,"Clc1cc(Cl)c2nc(Nc3nnco3)oc2c1 [Example 45, 4,6-Dichloro-N-(1,3,4-oxadiazol-2-yl)benzo[d]oxazol-2-amine]"
12,≤ 1000 nM,"Clc1ccc2nc(Nc3ccon3)oc2c1 [Example 46, 6-Chloro-N-(isoxazol-3-yl)benzo[d]oxazol-2-amine]"
13,≤ 100 nM,"Fc1cc2nc(Nc3nnco3)oc2cc1Cl [Example 47, 6-Chloro-5-fluoro-N-(1,3,4-oxadiazol-2-yl)benzo[d]oxazol-2-amine]"
14,≤ 100 nM,"Fc1cc2nc(Nc3nnco3)oc2cc1F [Example 48, 5,6-diFluoro-N-(1,3,4-oxadiazol-2-yl)benzo[d]oxazol-2-amine]"
15,≤ 1000 nM,"FC(F)(F)c1ccc2nc(Nc3ncc(N4CCNCC4)s3)oc2c1 [Example 49, N-(5-(Piperazin-1-yl)thiazol-2-yl)-6-(trifluoromethyl)benzo[d]oxazol-2-amine hydrochloride]"
16,≤ 1000 nM,"FC(F)(F)c1cc2oc(Nc3nnc(C4CC4)o3)nc2cn1 [Example 51, N-(5-Cyclopropyl-1,3,4-oxadiazol-2-yl)-6-(trifluoromethyl)oxazolo[4,5-c]pyridin-2-amine]"
17,≤ 1000 nM,"CCOC(=O)c1nnc(Nc2nc3cc(C(F)(F)F)ccc3o2)o1 [Example 52, Ethyl 5-((5-(trifluoromethyl)benzo[d]oxazol-2-yl)amino)-1,3,4-oxadiazole-2-carboxylate]"
18,≤ 10000 nM,"Cc1nnc(Nc2nc3cnc(C(F)(F)F)cc3o2)o1 [Example 53, N-(5-Methyl-1,3,4-oxadiazol-2-yl)-6-(trifluoromethyl)oxazolo[4,5-c]pyridin-2-amine]"
19,≤ 1000 nM,"Cc1nnc(Nc2nc3ccc(F)cc3o2)o1 [Example 54, 6-Fluoro-N-(5-methyl-1,3,4-oxadiazol-2-yl)benzo[d]oxazol-2-amine]"

row,Structure (SMILES),IC50
1,"Cc1nnc(Nc2nc3cc(Cl)ccc3o2)o1 [Example 50, 5-Chloro-N-(5-methyl-1,3,4-oxadiazol-2-yl)benzo[d]oxazol-2-amine]",≤ 100 nM
